Experimental findings from US11154514B2, “Quinic acid-modified nanoparticles and uses thereof” (Purdue Research Foundation, priority 2017, dated 2021) are described below.

One series has as its target T1, E-selectin (Homo sapiens, UniProt P16581).
T1 construct: TNF-α treatment induces the expression of E-selectin on HUVECs; endogenous in cells
T1 sequence (P16581 22-610): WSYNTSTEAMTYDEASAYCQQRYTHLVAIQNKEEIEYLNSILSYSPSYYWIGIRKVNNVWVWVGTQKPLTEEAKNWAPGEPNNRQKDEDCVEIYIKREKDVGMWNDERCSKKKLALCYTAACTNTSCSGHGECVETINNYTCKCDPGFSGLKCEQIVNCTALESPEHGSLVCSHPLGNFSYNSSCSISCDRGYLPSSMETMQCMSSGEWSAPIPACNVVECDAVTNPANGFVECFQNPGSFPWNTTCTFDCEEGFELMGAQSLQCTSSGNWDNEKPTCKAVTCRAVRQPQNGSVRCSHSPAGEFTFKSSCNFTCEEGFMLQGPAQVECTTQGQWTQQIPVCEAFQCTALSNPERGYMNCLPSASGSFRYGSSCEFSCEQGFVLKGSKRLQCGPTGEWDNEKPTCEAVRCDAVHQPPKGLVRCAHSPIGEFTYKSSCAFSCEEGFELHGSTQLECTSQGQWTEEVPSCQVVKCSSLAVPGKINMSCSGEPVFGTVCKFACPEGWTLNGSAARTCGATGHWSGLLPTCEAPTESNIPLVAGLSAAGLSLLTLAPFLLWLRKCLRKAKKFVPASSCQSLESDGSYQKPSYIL
In words: Competitive inhibition of QANP binding to activated HUVECs. The conditions noted are these: pre-incubated 30 minutes, flow cytometry. It is filed as cell-based. The method, then: For flow cytometry, HUVECs were treated with NPs in the same way as above and gently washed with PBS twice to remove free or loosely bound NPs. The cells were then trypsinized, collected by centrifugation at 930×g for 5 minutes, resuspended in 0.2 mL of PBS at 0° C., and analyzed with an Accuri C6 flow cytometer (BD Biosciences, San Jose, Calif., USA) equipped with an FL-1 detector (λex/λem=488/525 nm). For competition assay, known concentrations of free QA-NH2 or E-selectin antibody were pre-incubated with HUVECs for 30 minutes, prior to the NP treatment and flow cytometry.
Background: In flow cytometry, cells or beads pass a laser one at a time.

Series [1] relates to subcutaneous MDA-MB-231 tumor xenografts. Put plainly: In vivo whole body imaging and ex vivo organ distribution. Further details: species or system female athymic nude mice. The note with it: tail vein, imaged over 24 hours. The method, then:
All animal procedures were approved by the Purdue Animal Care and Use Committee, in compliance with the NIH guidelines for the care and use of laboratory animals. Female athymic nude mice ([…]) at the age of 6-7 weeks were purchased from Envigo (Indianapolis, Ind., USA) and acclimatized for 1 week prior to the procedure. Each mouse received 5×10^6 MDA-MB-231 cells in the flank of hind leg by subcutaneous injection. […] […] After 48 hours, mice were sacrificed, and tumors and major organs were retrieved and imaged with IVIS Lumina system. To quantify ICG content in each organ, tumor and major organs were homogenized in DMSO with a Tissue Master homogenizer (Omni International, Kennesaw, Ga., USA). The organ homogenates were centrifuged, and 0.1 mL supernatant was sampled from each homogenate and analyzed with the IVIS Lumina system.

For `Nc1cc(NC(=O)[C@]2(O)C[C@@H](O)[C@@H](O)[C@H](O)C2)cc(C(=O)O)c1` [QA-NH2, 3-amino-5-((1 S,3R,4S,5R)-1,3,4,5-tetrahydroxycyclohexane-1-carboxamido)benzoic Acid], the “QANP binding to the activated HUVECs in presence of competitor” value at E-selectin is listed as “reduced”.
In the case of `CC1(C)C(/C=C/C=C/C=C/C=C2\N(CCCCS(=O)(=O)O)c3ccc4ccccc4c3C2(C)C)=[N+](CCCCS(=O)(=O)[O-])c2ccc3ccccc3c21` [free ICG, indocyanine green], in series [1], the “tumor fluorescence (whole body imaging)” value is “did not show fluorescence in tumors at all time points”; the “whole body distribution and clearance” value is given as “gradually cleared by hepatobiliary elimination”.
